# Source: US8048642B2, “Heme choline esters and uses thereof” (priority 2007, dated 2011)
# Columns and labels:
# Assay type in all cases: biochemical
# [1] = molecular target: butyrylcholine esterase (BCE) (Equus caballus, UniProt P81908); test: Hydrolysis of heme bis choline ester by butyrylcholine esterase, followed by HPLC; conditions: bis choline ester with BCE (50 units) in phosphate buffer pH 7.0, HPLC at 400 nm
# Protocol: To confirm enzymatic hydrolysis of heme bis choline ester, a sample of bis choline ester in methanol was added to a solution of butyrylcholine esterase (BCE) (50 units) in phosphate buffer (pH 7.0). The progress of the hydrolysis was determined by HPLC analysis of the reaction mixture using a Waters Xterra C18 reverse phase column (4.6×50 mm). A gradient elution was performed starting with 95:5 water (+0.1% TFA):acetonitrile (+0.1% TFA) up to 0:100 over 10 minutes followed by isocratic elution with acetonitrile (+0.1% TFA) for 5 minutes. […] Under these conditions the bis ester elutes first (tR=5.2 min) followed by the monoester (5.9 min) and heme (6.6 min).
# [2] = molecular target: T1, apo-horseradish peroxidase (apo-HRP) (Armoracia rusticana, UniProt P00433); test: Recombination of heme and apo-HRP, TMB colorimetry; conditions: heme mixed with 30 pmol apo-horseradish peroxidase, 30 min, background corrected
# T1 sequence (P00433 31-338): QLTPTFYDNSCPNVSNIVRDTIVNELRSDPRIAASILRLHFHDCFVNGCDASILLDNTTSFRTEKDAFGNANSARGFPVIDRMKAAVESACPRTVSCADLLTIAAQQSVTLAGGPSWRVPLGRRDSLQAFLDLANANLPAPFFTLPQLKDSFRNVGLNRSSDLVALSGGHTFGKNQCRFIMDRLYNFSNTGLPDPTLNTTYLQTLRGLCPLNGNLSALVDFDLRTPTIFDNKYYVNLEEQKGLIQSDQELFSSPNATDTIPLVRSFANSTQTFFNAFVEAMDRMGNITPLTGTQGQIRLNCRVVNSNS
# Protocol: A 250 μM stock solution of horseradish peroxidase type VI (HRP, Sigma P8375, MW=44000 g/mol) was prepared by solubilizing 11 mg of lyophilized protein in 1 mL 100 mM sodium phosphate, pH 7.0.
# Heme was extracted from horseradish peroxidase type VI (Sigma P8375) according to the method of Teale (Biochim. Biophys. Acta 35, 543, (1959)). The resultant apo-HRP was dialyzed into 100 mM sodium phosphate, pH 7.0, with 0.1 mM calcium chloride. The concentration of this stock apo-HRP solution was estimated from absorbance at 280 nm as 30 μM by assuming an extinction coefficient of 20000 cm^−1 M^−1 (Lasagna et al., Biophys. J. 76, 443, (1999)).
# Within an hour before performing the peroxidase assay a fresh stock solution of approximately 1 mM heme (MW 652 g/mol) was prepared by first dissolving 38.9 mg heme (Sigma H5533) in 1 mL of 1.0M NaOH and then mixing 100 μL of the resulting solution with 6 mL 100 mM borate buffer, pH 9.1.
# The absorbance data in Table 4 was acquired using a SpectraMax M2 plate reader (Molecular Devices) in 96-sample format. The HRP stock solution was diluted serially with 100 mM sodium phosphate, pH 7.0, to make 2000, 500 and 50 pM solutions. 10 μL of each solution was then mixed with 90 μL 3,3′,5,5′-tetramethylbenzidine (TMB) liquid substrate system (Sigma T8665) to define t=0. The absorbance at 650 nm was measured after 30 min and corrected for the absorbance of TMB solution without added HRP.
# The heme stock solution was diluted serially with 100 mM borate buffer, pH 9.1, to make 2000 pM, 500 pM, and 50 pM solutions. 10 μL of each solution was first mixed with 1 μL of the apo-HRP stock solution and then immediately mixed with 90 μL TMB liquid substrate system to define t=0. The absorbance at 650 nm was measured after 30 min and corrected for the absorbance of a mixture of apo-HRP and TMB liquid substrate system without added heme.
# [3] = molecular target: T1, apo-horseradish peroxidase (apo-HRP); test: Signal enhancement from HRP-based cascade using a chromogenic substrate (TMB); conditions: 6 minutes after adding TMB liquid substrate; mixtures pre-incubated 16 hours at room temperature
# Protocol: The samples in Table 2 were prepared from the following stock solutions. A 120 μM stock solution of apo-HRP was prepared by adding 2 mL phosphate-buffered saline (PBS, Pierce 28372) to 10 mg lyophilized apo-HRP (Sigma 6278, MW=43000 g/mol). A 250 μM stock solution of horseradish peroxidase type VI (HRP, Sigma P8375, MW=44000 g/mol) was prepared by solubilizing 11 mg lyophilized protein in 1 mL 100 mM sodium phosphate, pH 7.0. A 1 kU/mL stock solution of butyrylcholine esterase was prepared by dissolving 1 kU lyophilized protein (Sigma C1057) in 1 mL phosphate-buffered saline (PBS, Pierce 28372). […] The 1 cm-path length absorbance of this 10% methanol solution was measured to be 17 absorbance units (au) at 390 nm using a NanoDrop-1000 Spectrophotometer. […]
# Samples A1, A2, B1, and B2 were each combined with 95 μL 3,3′,5,5′-tetramethylbenzidine (TMB) liquid substrate system (Sigma T8665), which includes hydrogen peroxide. After 6 minutes OD was determined at 650 nm in a 96-well format using a SpectraMax M2 plate reader (Molecular Devices). These signals are recorded in Table 2 above.
# Relative signal enhancement was calculated by subtracting appropriate background signals from wells A1 and A2, and then taking a ratio. […] The calculated signal enhancement is thus equal to (A1−B2)/(A2−B1), which corresponds to (1.05−0.16)/(0.10−0.04)=15. […]
# [4] = molecular target: T1, apo-horseradish peroxidase (apo-HRP); test: Blocking and rescue of peroxidase activity with a chemiluminescent substrate; conditions: for Rescue of peroxidase activity of apo-HRP plus heme bis choline ester: esterase added to apo-HRP and heme bis choline ester
# Protocol: (§1) A 1-kU/mL stock solution of butyrylcholine esterase was prepared by dissolving 1 kU of lyophilized protein (Sigma C1057) in 1 mL phosphate-buffered saline (PBS, Pierce 28372). An activity of 900 U per mg protein and MW=250000 g/mol was assumed and the concentration of the resultant solution was estimated as 4 μM.
# as §1, with “1 kU/mL” for “1-kU/mL”, “acetylcholine” for “butyrylcholine”, “kU” for “kU of”, “C2888)” for “C1057)”, “1000” for “900”, “MW=280000” for “MW=250000”
# A fresh 1 mM solution of heme was prepared in 100 mM borate buffer, pH 9.1, as described in Example 5. The 1 cm-path length absorbance of this solution was measured to be 40 at 390 nm using a NanoDrop-1000 Spectrophotometer (NanoDrop Technologies). A 0.1 mM heme solution was then prepared by mixing 100 μL of this stock with 900 μL in PBS.
# Less than 1 mg heme bis choline ester was dissolved in 100 μL methanol. 10 μL of the methanol solution was then mixed with 90 μL 100 mM borate buffer, pH 9.1. The 1 cm-path length absorbance of this 10% methanol solution was measured to be 17 absorbance units (au) at 390 nm using a NanoDrop-1000 Spectrophotometer. Assuming the extinction coefficient of heme bis choline ester in 10% methanol was not substantially different than that of heme in PBS, a 0.1 mM solution of heme bis choline ester was then prepared by mixing 23.5 μL of the 10% methanol solution with 77.5 μL PBS.
# Solutions of 0.3 μM apo-HRP, 10 μM heme and 10 μM heme bis choline ester in PBS were prepared by dilution of these stock solutions with PBS. […]
# 90 μL of freshly mixed chemiluminescent substrate (Sigma CPS260, an enhanced luminol product with a stabilized peroxide buffer solution) was added to reaction mixtures 1-6, which were allowed to incubate at room temperature for 5 minutes and the luminescence units (LU) for each was determined with a SpectraMax M2 plate reader in a 96-well format (Molecular Devices), shown below in Table 5.
# Sequence of butyrylcholine esterase (BCE) (P81908 whole entry): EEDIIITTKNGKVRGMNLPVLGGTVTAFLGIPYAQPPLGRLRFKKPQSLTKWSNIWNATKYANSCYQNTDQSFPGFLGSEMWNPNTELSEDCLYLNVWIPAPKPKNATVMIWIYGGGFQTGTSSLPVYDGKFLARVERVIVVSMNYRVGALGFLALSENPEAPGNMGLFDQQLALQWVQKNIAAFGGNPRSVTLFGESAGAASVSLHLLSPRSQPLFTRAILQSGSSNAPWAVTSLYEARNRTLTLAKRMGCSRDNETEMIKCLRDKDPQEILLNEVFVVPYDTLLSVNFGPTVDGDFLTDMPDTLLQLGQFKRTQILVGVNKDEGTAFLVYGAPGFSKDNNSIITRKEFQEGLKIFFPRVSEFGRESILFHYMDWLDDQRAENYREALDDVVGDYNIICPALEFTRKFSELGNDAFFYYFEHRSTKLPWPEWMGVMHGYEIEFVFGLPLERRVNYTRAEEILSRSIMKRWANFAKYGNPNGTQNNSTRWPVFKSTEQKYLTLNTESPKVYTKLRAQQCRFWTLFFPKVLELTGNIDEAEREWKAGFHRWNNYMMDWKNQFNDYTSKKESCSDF
molecule,measurement,setting,value
"C=CC1=C(C)c2cc3[n-]c(cc4[n-]c(cc5nc(cc1n2)C(C)=C5C=C)c(C)c4CCC(=O)O)c(CCC(=O)O)c3C.[Fe+2] [Heme, heme]",HPLC peak area (hydrolysis progress),[1]; 0.75 hr,7 AUC units
same,HPLC peak area (hydrolysis progress),[1]; 2.75 hr,12 AUC units
same,HPLC peak area (hydrolysis progress),[1]; 21 hr,21 AUC units
same,OD 650 nm,[2]; 5 fmol,0.07
same,OD 650 nm,[2]; 20 fmol,0.79
A2: 5 μL of 0.13 nM HRP (0.7 fmol) [Sample A2],OD 650 nm,[3],0.10
BCE: butyrylcholine esterase (Sigma C1057),Rescue of peroxidase activity of apo-HRP plus heme bis choline ester,[4],rescued
acetylcholine esterase: acetylcholine esterase (Sigma C2888),Rescue of peroxidase activity of apo-HRP plus heme bis choline ester,[4],did not demonstrably rescue peroxidase activity
heme bis choline ester [Bis ester],Peroxidase activity of mixture with apo-HRP compared with heme,"[4]; sample 1 versus sample 4, 10-fold excess of heme bis choline ester",less peroxidase activity
same,"Hydrolysis vs. Time, converted to concentration",[1]; 0 hr,100 AUC units
same,"Hydrolysis vs. Time, converted to concentration",[1]; 0.75 hr,60 AUC units
same,"Hydrolysis vs. Time, converted to concentration",[1]; 2.75 hr,52 AUC units
same,"Hydrolysis vs. Time, converted to concentration",[1]; 21 hr,41 AUC units
heme mono choline ester [Mono ester],"Hydrolysis vs. Time, converted to concentration",[1]; 0.75 hr,28 AUC units
same,"Hydrolysis vs. Time, converted to concentration",[1]; 2.75 hr,29 AUC units
same,"Hydrolysis vs. Time, converted to concentration",[1]; 21 hr,24 AUC units
horseradish peroxidase: horseradish peroxidase type VI (Sigma P8375),OD 650 nm,[2]; 5 fmol,0.88
same,OD 650 nm,[2]; 20 fmol,3.4
